Molecular target: DNA gyrase (Staphylococcus aureus) (UniProt P0A0K8+P20831)
Sequence (P0A0K8 2-644 limits assumed): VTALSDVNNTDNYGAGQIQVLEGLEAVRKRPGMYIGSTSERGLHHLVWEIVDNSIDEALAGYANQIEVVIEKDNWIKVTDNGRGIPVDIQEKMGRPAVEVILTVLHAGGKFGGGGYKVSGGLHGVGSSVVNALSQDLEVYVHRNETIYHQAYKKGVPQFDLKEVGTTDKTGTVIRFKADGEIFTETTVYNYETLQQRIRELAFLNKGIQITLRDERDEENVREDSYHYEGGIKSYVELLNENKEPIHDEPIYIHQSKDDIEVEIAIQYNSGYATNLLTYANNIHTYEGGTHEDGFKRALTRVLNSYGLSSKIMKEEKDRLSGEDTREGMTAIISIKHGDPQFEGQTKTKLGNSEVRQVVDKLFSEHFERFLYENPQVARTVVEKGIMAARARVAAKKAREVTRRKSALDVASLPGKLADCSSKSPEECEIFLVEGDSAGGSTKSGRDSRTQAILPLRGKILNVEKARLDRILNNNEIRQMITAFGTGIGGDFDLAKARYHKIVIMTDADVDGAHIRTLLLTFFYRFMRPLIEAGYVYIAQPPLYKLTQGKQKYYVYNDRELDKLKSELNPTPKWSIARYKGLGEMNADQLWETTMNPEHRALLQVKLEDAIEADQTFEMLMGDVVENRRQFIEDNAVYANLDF
Sequence (P20831 whole entry partner): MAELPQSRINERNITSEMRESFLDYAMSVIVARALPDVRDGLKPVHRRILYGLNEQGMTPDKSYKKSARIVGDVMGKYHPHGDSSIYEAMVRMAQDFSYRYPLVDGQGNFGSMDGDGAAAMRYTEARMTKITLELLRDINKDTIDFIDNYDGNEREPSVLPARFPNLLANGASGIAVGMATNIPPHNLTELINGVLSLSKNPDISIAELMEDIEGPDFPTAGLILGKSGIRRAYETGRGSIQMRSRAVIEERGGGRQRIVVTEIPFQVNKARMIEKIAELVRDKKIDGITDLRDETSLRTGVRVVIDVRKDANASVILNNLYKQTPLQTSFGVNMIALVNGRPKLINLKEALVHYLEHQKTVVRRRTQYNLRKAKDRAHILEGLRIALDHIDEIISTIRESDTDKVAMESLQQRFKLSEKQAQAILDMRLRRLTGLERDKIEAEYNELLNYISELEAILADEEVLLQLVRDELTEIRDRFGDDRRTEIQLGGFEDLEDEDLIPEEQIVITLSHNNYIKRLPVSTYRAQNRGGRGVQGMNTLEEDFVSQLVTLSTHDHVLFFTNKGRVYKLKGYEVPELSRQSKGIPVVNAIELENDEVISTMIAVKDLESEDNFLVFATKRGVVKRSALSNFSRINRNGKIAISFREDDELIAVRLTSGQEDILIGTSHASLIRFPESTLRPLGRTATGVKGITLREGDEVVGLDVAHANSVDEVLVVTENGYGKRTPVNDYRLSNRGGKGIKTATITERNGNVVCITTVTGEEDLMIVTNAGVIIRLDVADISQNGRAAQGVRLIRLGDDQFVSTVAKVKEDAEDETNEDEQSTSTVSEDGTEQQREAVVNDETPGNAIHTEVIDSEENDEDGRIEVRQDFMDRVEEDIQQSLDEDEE
Description: Maximal noneffective concentration for inhibition of DNA gyrase using supercoiling assay.

First: N#Cc1cnc(S)nc1N
Second: Nc1ncncn1
The MNEC of the first is lower: 16 µg/mL for the first, greater than 250 µg/mL for the second.

First: O=[N+]([O-])c1ccc2[nH]nc(-c3ccccc3)c2c1
Second: c1ccc(-c2[nH]nc3ccccc23)cc1
The MNEC of the first is 7.9-fold higher: 63 µg/mL for the first, 8 µg/mL for the second.

Compared with `CSc1nc(N)nc(SCCN2CCOCC2)n1`, `Cc1c(O)cc(O)c2c1C(=O)OC[C@H](NC(=O)[C@@H]1[C@H](O)CCN1C(=O)[C@@H](N)CO)C(=O)N[C@H](C(=O)N[C@@H](C)C(=O)O)CSC2` is 620-fold lower in MNEC: 31 µg/mL for the first, 0.05 µg/mL for the second.

Going from `Cc1cc(=O)oc2cc(SCc3n[nH]c4cccc(OCc5ccccc5)c34)ccc12` to `Cc1cc(=O)oc2cc(SCc3n[nH]c4cccc(OCc5ccc(C(C)(C)C)cc5)c34)ccc12`, the MNEC falls from 0.25 µg/mL to 0.03 µg/mL (8.3-fold).

Compared with `NC(=O)Oc1cc([N+](=O)[O-])ccc1CSCc1ccc(Cl)c(Cl)c1`, `Oc1ccc(Cl)cc1CNc1ccc(Cl)cc1` is 6.2-fold lower in MNEC: 31 µg/mL for the first, 5 µg/mL for the second.

`Nc1ccccn1` and `Nc1ccncn1` cannot be ordered by MNEC: greater than 250 µg/mL for the first, greater than 250 µg/mL for the second.

First: OC(CCCCl)c1cc2ccccc2[nH]1 (stereo not given)
Second: Cc1cc(=O)oc2cc(SCc3n[nH]c4ccccc34)ccc12
The MNEC of the first is 2-fold higher: 16 µg/mL for the first, 8 µg/mL for the second.

First: Nc1ncccn1
Second: Cc1[nH]c2ncnc(Cl)c2c1C
The MNEC of the first is higher: greater than 250 µg/mL for the first, 31 µg/mL for the second.

Work on `Cc1csc(NS(=O)(=O)c2ccc(F)cc2F)c1C(N)=O` yielded an MNEC of 10 µg/mL.

Test system: Nucleic Acid
Assay: Maximal noneffective concentration (MNEC) for inhibition of DNA gyrase
Format: nucleic-acid assay

With `c1ccc2[nH]ncc2c1` the MNEC was greater than 250 µg/mL.

Test system: not listed separately
Assay: Dissociation constant determined by heteronuclear 1H/15N correlation NMR spectroscopy
Format: physicochemical

`Nc1ncncn1` and `Nc1ncccn1` are the same in Kd: 60 mM for the first, 60 mM for the second.

— ChEMBL document CHEMBL1133769, “Novel inhibitors of DNA gyrase: 3D structure based biased needle screening, hit validation by biophysical methods, and 3D guided optimization. A promising alternative to random screening” (J Med Chem, 2000)
